Measurements from patent publication US11053213B2, “Pharmaceutical compounds” (ALMAC DISCOVERY LIMITED, priority 2016, dated 2021).

target: USP19 (Homo sapiens (Human), UniProt O94966); assay: USP19 activity assay (fluorescence polarisation, Ubiquitin-Lys-TAMRA substrate); format: biochemical; settings: full-length USP19 2.5 nM, 30 min pre-incubation, Ub substrate 500 nM; average of at least two duplicate experiments
Sequence (O94966 whole entry): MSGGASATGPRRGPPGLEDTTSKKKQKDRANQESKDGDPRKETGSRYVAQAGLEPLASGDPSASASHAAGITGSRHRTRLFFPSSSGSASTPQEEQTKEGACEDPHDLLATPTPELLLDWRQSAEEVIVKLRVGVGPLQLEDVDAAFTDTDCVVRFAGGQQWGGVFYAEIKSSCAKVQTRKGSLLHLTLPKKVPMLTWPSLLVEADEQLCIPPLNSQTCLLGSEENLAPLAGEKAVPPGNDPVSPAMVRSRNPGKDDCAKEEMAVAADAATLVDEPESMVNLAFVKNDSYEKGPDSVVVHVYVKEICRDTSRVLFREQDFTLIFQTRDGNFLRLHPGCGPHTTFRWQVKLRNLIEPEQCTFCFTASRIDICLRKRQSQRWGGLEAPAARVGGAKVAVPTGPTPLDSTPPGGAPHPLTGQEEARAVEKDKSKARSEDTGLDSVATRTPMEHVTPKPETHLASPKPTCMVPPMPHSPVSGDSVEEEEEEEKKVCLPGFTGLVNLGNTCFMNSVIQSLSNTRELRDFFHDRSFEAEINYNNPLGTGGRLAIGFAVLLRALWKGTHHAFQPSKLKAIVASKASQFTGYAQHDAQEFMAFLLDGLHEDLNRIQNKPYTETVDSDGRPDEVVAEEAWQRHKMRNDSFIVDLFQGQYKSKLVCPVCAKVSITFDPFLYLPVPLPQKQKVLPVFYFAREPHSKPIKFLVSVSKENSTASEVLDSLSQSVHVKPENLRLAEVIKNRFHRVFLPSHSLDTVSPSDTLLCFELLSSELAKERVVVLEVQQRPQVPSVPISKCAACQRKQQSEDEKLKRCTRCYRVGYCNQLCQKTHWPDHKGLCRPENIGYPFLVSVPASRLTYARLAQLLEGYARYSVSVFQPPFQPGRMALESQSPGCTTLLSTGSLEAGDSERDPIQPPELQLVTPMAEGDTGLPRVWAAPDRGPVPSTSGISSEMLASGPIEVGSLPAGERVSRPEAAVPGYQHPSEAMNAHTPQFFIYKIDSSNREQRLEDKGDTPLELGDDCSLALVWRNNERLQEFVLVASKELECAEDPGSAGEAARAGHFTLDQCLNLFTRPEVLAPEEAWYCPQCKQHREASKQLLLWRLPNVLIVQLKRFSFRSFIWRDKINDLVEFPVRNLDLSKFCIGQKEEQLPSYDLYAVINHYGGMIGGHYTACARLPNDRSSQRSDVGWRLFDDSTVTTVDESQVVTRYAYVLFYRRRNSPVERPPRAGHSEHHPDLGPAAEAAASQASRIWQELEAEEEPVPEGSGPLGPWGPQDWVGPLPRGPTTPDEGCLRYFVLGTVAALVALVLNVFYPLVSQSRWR

Structure (SMILES)	IC50 [µM]
Cc1ccc(-c2cc(=O)n(CC3(O)CCN(C(=O)C[C@@H](C)c4ccccc4)CC3)cc2C(=O)N(C)C(C)C)cc1 [Example 96, (R)-1-((4-Hydroxy-1-(3-phenylbutanoyl)piperidin-4-yl)methyl)-N-isopropyl-N-methyl-6-oxo-4-(p-tolyl)-1,6-dihydropyridine-3-carboxamide]	5 to 50
CON(C)C(=O)c1cn(CC2(O)CCN(C(=O)C[C@@H](C)c3ccccc3)CC2)c(=O)cc1-c1ccccc1 [Example 97, (R)-1-((4-Hydroxy-1-(3-phenylbutanoyl)piperidin-4-yl)methyl)-N-methoxy-N-methyl-6-oxo-4-phenyl-1,6-dihydropyridine-3-carboxamide]	5 to 50
C[C@H](CC(=O)N1CCC(O)(Cn2cc(-c3ccccc3)c(-c3ccccc3)cc2=O)CC1)c1ccccc1 [Example 98, (R)-1-((4-Hydroxy-1-(3-phenylbutanoyl)piperidin-4-yl)methyl)-4,5-diphenylpyridin-2(1H)-one]	5 to 50
C[C@H](CC(=O)N1CCC(O)(Cn2cc(-c3cccnc3)c(-c3ccccc3)cc2=O)CC1)c1ccccc1 [Example 99, (R)-1-((4-Hydroxy-1-(3-phenylbutanoyl)piperidin-4-yl)methyl)-4-phenyl-[3,3′-bipyridin]-6(1H)-one]	5 to 50
C[C@H](CC(=O)N1CCC(O)(Cn2cc(-c3cccc(CN)c3)c(-c3ccccc3)cc2=O)CC1)c1ccccc1 [Example 100, (R)-5-(3-(Aminomethyl)phenyl)-1-((4-hydroxy-1-(3-phenylbutanoyl)piperidin-4-yl)methyl)-4-phenylpyridin-2(1H)-one]	5 to 50
CC(C)N(C)C(=O)c1cn(CC2(O)CCN(C(=O)C[C@@H](C)c3ccccc3)CC2)c(=O)cc1-c1ccccc1 [Example 101, (R)-1-((4-Hydroxy-1-(3-phenylbutanoyl)piperidin-4-yl)methyl)-N-isopropyl-N-methyl-6-oxo-4-phenyl-1,6-dihydropyridine-3-carboxamide]	5 to 50
Cc1cccc(-c2cc(=O)n(CC3(O)CCN(C(=O)C[C@@H](C)c4ccccc4)CC3)cc2C(=O)N(C)C(C)C)c1 [Example 102, (R)-1-((4-Hydroxy-1-(3-phenylbutanoyl)piperidin-4-yl)methyl)-N-isopropyl-N-methyl-6-oxo-4-(m-tolyl)-1,6-dihydropyridine-3-carboxamide]	0.5 to 5
C[C@H](CC(=O)N1CCC(O)(Cn2cc(-c3cncnc3)c(-c3ccccc3)cc2=O)CC1)c1ccccc1 [Example 103, (R)-1-((4-Hydroxy-1-(3-phenylbutanoyl)piperidin-4-yl)methyl)-4-phenyl-5-(pyrimidin-5-yl)pyridin-2(1H)-one]	5 to 50
C[C@H](CC(=O)N1CCC(O)(Cn2cc(C(=O)NCC3CC3)c(-c3ccccc3)cc2=O)CC1)c1ccccc1 [Example 104, (R)—N-(Cyclopropylmethyl)-1-((4-hydroxy-1-(3-phenylbutanoyl)piperidin-4-yl)methyl)-6-oxo-4-phenyl-1,6-dihydropyridine-3-carboxamide]	5 to 50
C[C@H](CC(=O)N1CCC(O)(Cn2cc(C(=O)N(C)Cc3ccccc3)c(-c3ccccc3)cc2=O)CC1)c1ccccc1 [Example 105, (R)—N-Benzyl-1-((4-hydroxy-1-(3-phenylbutanoyl)piperidin-4-yl)methyl)-N-methyl-6-oxo-4-phenyl-1,6-dihydropyridine-3-carboxamide]	5 to 50
C[C@H](CC(=O)N1CCC(O)(Cn2cc(-c3ccccc3C#N)c(-c3ccccc3)cc2=O)CC1)c1ccccc1 [Example 106, (R)-2-(1-((4-Hydroxy-1-(3-phenylbutanoyl)piperidin-4-yl)methyl)-6-oxo-4-phenyl-1,6-dihydropyridin-3-yl)benzonitrile]	5 to 50
C[C@H](CC(=O)N1CCC(O)(Cn2cc(C(=O)N(C)c3ccccc3)c(-c3ccccc3)cc2=O)CC1)c1ccccc1 [Example 107, (R)-1-((4-Hydroxy-1-(3-phenylbutanoyl)piperidin-4-yl)methyl)-N-methyl-6-oxo-N,4-diphenyl-1,6-dihydropyridine-3-carboxamide]	5 to 50
CC(n1cnc(-c2ccccc2)cc1=O)C1(O)CCN(C(=O)[C@H](C)CC2CCCCC2)CC1 (stereo partly drawn) [Example 108, 3-(1-(1-((R)-3-Cyclohexyl-2-methylpropanoyl)-4-hydroxypiperidin-4-yl)ethyl)-6-phenylpyrimidin-4(3H)-one]	0.5 to 5
C[C@H](CC(=O)N1CCC(O)(Cn2cc(-c3cnn(C)c3)c(-c3ccccc3)cc2=O)CC1)c1ccccc1 [Example 109, (R)-1-((4-Hydroxy-1-(3-phenylbutanoyl)piperidin-4-yl)methyl)-5-(1-methyl-1H-pyrazol-4-yl)-4-phenylpyridin-2(1H)-one]	50 to 250
C=CC[C@H](CC1CCCCC1)C(=O)N1CCC(O)(Cn2cnc(-c3ccccc3F)cc2=O)CC1 [Example 110, (R)-3-((1-(2-(Cyclohexylmethyl)pent-4-enoyl)-4-hydroxypiperidin-4-yl)methyl)-6-(2-fluorophenyl)pyrimidin-4(3H)-one]	0.5 to 5
Cc1cn(CC2(O)CCN(C(=O)C[C@@H](C)c3ccccc3)CC2)c(=O)cc1-c1ccccc1 [Example 111, (R)-1-((4-Hydroxy-1-(3-phenylbutanoyl)piperidin-4-yl)methyl)-5-methyl-4-phenylpyridin-2(1H)-one]	50 to 250
Cc1c(-c2cc(=O)n(CC3(O)CCN(C(=O)C[C@@H](C)c4ccccc4)CC3)cn2)cnn1C [Example 112, (R)-6-(1,5-Dimethyl-1H-pyrazol-4-yl)-3-((4-hydroxy-1-(3-phenylbutanoyl)piperidin-4-yl)methyl)pyrimidin-4(3H)-one]	50 to 250
O=C(CCC1CCCCC1)N1C[C@H]2CC[C@@H](C1)C2(O)Cn1cnc(-c2ccccc2F)cc1=O (stereo partly drawn) [Example 113, 3-(((1R,5S)-3-(3-Cyclohexylpropanoyl)-8-hydroxy-3-azabicyclo[3.2.1]octan-8-yl)methyl)-6-(2-fluorophenyl)pyrimidin-4(3H)-one]	50 to 250
C[C@H](CC(=O)N1CCC(O)(Cn2cc(C#N)c(-c3ccccc3)cc2=O)CC1)c1ccccc1 [Example 114, (R)-1-((4-Hydroxy-1-(3-phenylbutanoyl)piperidin-4-yl)methyl)-6-oxo-4-phenyl-1,6-dihydropyridine-3-carbonitrile]	5 to 50
C[C@H](CC(=O)N1CCC(O)(Cn2cc(C(=O)NCCO)c(-c3ccccc3)cc2=O)CC1)c1ccccc1 [Example 115, (R)-1-((4-Hydroxy-1-(3-phenylbutanoyl)piperidin-4-yl)methyl)-N-(2-hydroxyethyl)-6-oxo-4-phenyl-1,6-dihydropyridine-3-carboxamide]	5 to 50
C[C@H](CC(=O)N1CCC(O)(Cn2cc(C(=O)N3CCC[C@@H]3C)c(-c3ccccc3)cc2=O)CC1)c1ccccc1 [Example 116, 1-((4-Hydroxy-1-((R)-3-phenylbutanoyl)piperidin-4-yl)methyl)-5-((S)-2-methylpyrrolidine-1-carbonyl)-4-phenylpyridin-2(1H)-one]	0.5 to 5
C[C@H](CC(=O)N1CCC(O)(Cn2cc(C(=O)N3CCC(CO)CC3)c(-c3ccccc3)cc2=O)CC1)c1ccccc1 [Example 117, (R)-1-((4-Hydroxy-1-(3-phenylbutanoyl)piperidin-4-yl)methyl)-5-(4-(hydroxymethyl)piperidine-1-carbonyl)-4-phenylpyridin-2(1H)-one]	0.5 to 5
CCC(CC1CCCCC1)C(=O)N1CCC(O)(Cn2cnc(-c3ccccc3F)cc2=O)C(C)(C)C1 (stereo not drawn) [Example 118, 3-((1-(2-(Cyclohexylmethyl)butanoyl)-4-hydroxy-3,3-dimethylpiperidin-4-yl)methyl)-6-(2-fluorophenyl)pyrimidin-4(3H)-one]	0.5 to 5
C[C@H](CC1CCCCC1)C(=O)N1CCC(O)(Cn2cnc(-c3ccccc3F)cc2=O)C2(CCCC2)C1 (stereo partly drawn) [Example 119, 3-((7-((R)-3-Cyclohexyl-2-methylpropanoyl)-10-hydroxy-7-azaspiro[4.5]decan-10-yl)methyl)-6-(2-fluorophenyl)pyrimidin-4(3H)-one]	< 0.5
CC(C)N(C)C(=O)c1cn(C[C@]2(O)CCN(C(=O)[C@H](C)CC3CCCCC3)CC2(C)C)c(=O)cc1-c1ccccc1 [Example 120, 1-(((S)-1-((R)-3-Cyclohexyl-2-methylpropanoyl)-4-hydroxy-3,3-dimethylpiperidin-4-yl)methyl)-N-isopropyl-N-methyl-6-oxo-4-phenyl-1,6-dihydropyridine-3-carboxamide]	< 0.5
C[C@H](CC1CCCCC1)C(=O)N1CC[C@@](O)(Cn2cc(C(=O)N(C)C)c(-c3ccccc3)cc2=O)C(C)(C)C1 [Example 121, 1-(((S)-1-((R)-3-Cyclohexyl-2-methylpropanoyl)-4-hydroxy-3,3-dimethylpiperidin-4-yl)methyl)-N,N-dimethyl-6-oxo-4-phenyl-1,6-dihydropyridine-3-carboxamide]	< 0.5
C[C@H](CC1CCCCC1)C(=O)N1CC[C@](O)(Cn2cc(C(=O)N(C)C)c(-c3ccccc3)cc2=O)C(C)(C)C1 [Example 122, 1-(((R)-1-((R)-3-Cyclohexyl-2-methylpropanoyl)-4-hydroxy-3,3-dimethylpiperidin-4-yl)methyl)-N,N-dimethyl-6-oxo-4-phenyl-1,6-dihydropyridine-3-carboxamide]	50 to 250
C[C@H](CC1CCCCC1)C(=O)N1CC[C@@](O)(Cn2cc(C(=O)N3CCCC3)c(-c3ccccc3)cc2=O)C(C)(C)C1 [Example 123, 1-(((S)-1-((R)-3-Cyclohexyl-2-methylpropanoyl)-4-hydroxy-3,3-dimethylpiperidin-4-yl)methyl)-4-phenyl-5-(pyrrolidine-1-carbonyl)pyridin-2(1H)-one]	< 0.5
C[C@H](CC1CCCCC1)C(=O)N1CC[C@](O)(Cn2cc(C(=O)N3CCNCC3)c(-c3ccccc3)cc2=O)C(C)(C)C1 [Example 125, 1-(((R)-1-((R)-3-Cyclohexyl-2-methylpropanoyl)-4-hydroxy-3,3-dimethylpiperidin-4-yl)methyl)-4-phenyl-5-(piperazine-1-carbonyl)pyridin-2(1H)-one]	5 to 50
CC(OC1CCCCC1)C(=O)N1CCC(O)(Cn2cnc(-c3ccccc3F)cc2=O)C(C)(C)C1 (stereo not drawn) [Example 126, 3-((1-(2-(Cyclohexyloxy)propanoyl)-4-hydroxy-3,3-dimethylpiperidin-4-yl)methyl)-6-(2-fluorophenyl)pyrimidin-4(3H)-one]	50 to 250
